Format in all cases: cell-based
In one assay the test system is Burkholderia glumae. Put plainly: microbe, parasite or virus in culture. Particulars: read-out: Minimum inhibitory concentration (MIC).
Assay [1] deals with Pseudomonas syringae pv. actinidiae. Put plainly: 96-well microplate bioassay, MIC. Particulars: read-out: Minimum inhibitory concentration (MIC). As to the method: (§1) The butanol extract produced as in Example 3 was dissolved in methanol at a level of 5 mg/mL, and antibacterial activity thereof against various plant pathogens was examined.
(§2) Then, dilution with sterilized water was performed to reach 10^6 CFU/ml, and inoculation into a 96-well plate was performed.
(§3) For the butanol extract of the Bacillus sp. strain DR-08, the butanol extract of the strain DR-08 and streptomycin sulfate as a control agent were made to have the highest concentrations of 500·μg/mL and 100 μg/mL, respectively, in a TSB medium into which 14 various phytopathogenic bacteria including Gram-negative and Gram-positive bacteria had been inoculated. Then, starting from the next well, the concentrations were decreased by 2-fold using an octapipette. The butanol extract of the strain DR-08 was used by being sequentially diluted by 2-fold from 500 μg/mL at the highest down to 15.6 μg/mL, and streptomycin sulfate as a control agent was used by being sequentially diluted by 2-fold from 100 μg/mL at the highest down to 3.1 μg/mL. Standing culture was performed at optimal growth conditions, and then growth of the phytopathogenic bacteria was measured at an absorbance of 595 nm with a microplate reader. Then, a minimum growth inhibitory concentration (MIC) value was determined.

For the next assay, the system named is Acidovorax konjaci. Put plainly: 96-well microplate bioassay, MIC. Particulars: Paracidovorax konjaci; read-out: Minimum inhibitory concentration (MIC). As for the experimental part:
as §1, §2, §3

In assay [2] the test system is Agrobacterium tumefaciens. Put plainly: 96-well microplate bioassay, MIC. Particulars: read-out: Minimum inhibitory concentration (MIC). As for the experimental part: as §1, §2, §3
The test system of assay [3] is Pectobacterium carotovora subsp. carotovora. Put plainly: 96-well microplate bioassay, MIC. The note with it: read-out: Minimum inhibitory concentration (MIC). As for the experimental part: as §1, §2, §3
The test system of assay [4] is Pseudomonas syringae pv. lachrymans. Put plainly: 96-well microplate bioassay, MIC. Particulars: read-out: Minimum inhibitory concentration (MIC). As for the experimental part: as §1, §2, §3
The test system of assay [5] is Xanthomonas arboricola pv. pruni. The experiment in a line: 96-well microplate bioassay, MIC. The note with it: read-out: Minimum inhibitory concentration (MIC). As for the experimental part: as §1, §2, §3
In assay [6] the test system is Clavibacter michiganensis subsp. michiganensis. Put plainly: 96-well microplate bioassay, MIC. The note with it: read-out: Minimum inhibitory concentration (MIC).
Assay [7] concerns Xanthomonas euvesicatoria. The experiment in a line: microbe, parasite or virus in culture. Particulars: read-out: Minimum inhibitory concentration (MIC).
For assay [8], the system named is Acidovorax avenae subsp. cattleyae. Put plainly: 96-well microplate bioassay, MIC. On the set-up: key: —: Not active. As for the experimental part: as §1, §2, §3
For assay [9], the system named is Pectobacterium chrysanthemi. The experiment in a line: 96-well microplate bioassay, MIC. Details: key: —: Not active. As to the method:
as §1, §2, §3

For assay [10], the system named is Xanthomonas arboricola pv. pruni. The experiment in a line: microbe, parasite or virus in culture. The note with it: 48 h, read-out: Clear zone.
Another assay has as its system Ralstonia solanacearum. The experiment in a line: microbe, parasite or virus in culture. Particulars: read-out: Minimum inhibitory concentration (MIC).
The subject of assay [11] is Xanthomonas oryzae pv. oryzae. The experiment in a line: microbe, parasite or virus in culture. Particulars: read-out: Minimum inhibitory concentration (MIC).
The subject of assay [12] is Xanthomonas axonopodis pv. citri. The experiment in a line: 96-well microplate bioassay, MIC. The note with it: read-out: Minimum inhibitory concentration (MIC).

Counter-ions that a name gives are not always drawn.

`[H]/N=C(/N)N[C@H]1[C@H](O)[C@@H](O)[C@H](O[C@@H]2O[C@@H](C)[C@](O)(C=O)[C@H]2O[C@@H]2O[C@@H](CO)[C@H](O)[C@@H](O)[C@@H]2NC)[C@@H](N/C(N)=N\[H])[C@@H]1O` [Streptomycin sulfate, streptomycin sulfate]: the MIC turned out to be 12.5 µg/mL with Burkholderia glumae; 12.5 µg/mL in assay [1]; 6.25 µg/mL in the assay with Acidovorax konjaci; 100 µg/mL in assay [2]; 12.5 µg/mL in [3]; 50 µg/mL in assay [4]. Further, the MIC in assay [5] was 12.5 µg/mL; in assay [6], 25 µg/mL; in assay [7] it was 12.5 µg/mL; in the assay with Ralstonia solanacearum it was 3.12 µg/mL; in assay [11] it was 3.12 µg/mL; in assay [12], 6.25 µg/mL. Further, the “Minimum inhibitory concentration (MIC)” value in assay [8] and in [9] was “—” in each case. Besides, the zone of inhibition at 200 ppm in [10] stood at 4 mm.

The values above are taken from US11528912B2, “Bacillus methylotrophicus strain DR-08 producing natural volatile compound and having antibacterial activity, and use thereof” (GLOBAL AGRO CO., LTD., priority 2016, dated 2022).
